TGI and GI50 data for 15 molecules are collected here from PubChem BioAssay (NCI).

“And” between values parts separate entries of the source, which are not always exact repeats. Identical values can stand only once.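 Cells were grown in 96-well plates and exposed to each compound for 48 hours at five concentrations; endpoints were interpolated linearly between bracketing concentrations, or set to the highest concentration if not reached. GI50 is the concentration that inhibits growth by half. TGI is the concentration that stops growth completely.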 A value given as a limit tells only on which side of the number the result lay.

The term TGI denotes the concentration at which net growth stops. Lower therefore signals greater sensitivity of the cells. In general, GI50 refers to the concentration giving 50% growth inhibition.

What all share (test): DTP human tumour cell line panel, 48 h
Experiment [1] concerns SNB-75 CNS.
For experiment [2], the system named is SNB-19 CNS.
Experiment [3] relates to A549 NSCLC.
Experiment [4] concerns UO-31 renal.
The test system of experiment [5] is TK-10 renal.
The subject of experiment [6] is SF-295 CNS.
The subject of experiment [7] is OVCAR-4 ovarian.
The subject of experiment [8] is A498 renal.
In experiment [9] the test system is MDA-MB-231 breast.

As to `CCNC(=O)OCc1c(COC(=O)NCC)c(-c2ccc(Cl)c(Cl)c2)n2c1CCC2`, the TGI stood at 27.7 µM in [1]; 68.1 µM in [2]; 82.3 µM in [3]; 24.3 µM in experiment [4]; 54.5 µM in experiment [5]; 36.7 µM in [6]. The concentration for total growth inhibition (TGI) in experiment [7] is 36.1 µM.

Take `Nc1c(Cl)ncnc1NCCCCCCCCCCCCNc1ncnc(Cl)c1N`: the TGI in [1] was 7.16 µM; in experiment [2], more than 100 µM; in experiment [4] it was 18.3 µM; in experiment [5], more than 100 µM; in experiment [6], 5.92 µM; in [8], more than 100 µM. This molecule also displayed a TGI in experiment [7] of more than 100 µM.

As for `Cc1cc(C)c(-c2noc(-c3ccc(Cl)cc3)c2C2=NCCCN2)c(C)c1`, the TGI in experiment [2] was more than 100 µM; in [3], more than 100 µM; in experiment [4], more than 100 µM; in experiment [6] it was 25.4 µM; in experiment [7], more than 100 µM.

Turning to `COc1ccc(S(=O)(=O)N(CC(=O)O)c2ccccc2)cc1`, the TGI in [1], in experiment [2], in experiment [3], in experiment [4], in [5] and in experiment [6] was more than 100 µM each time. The concentration for total growth inhibition (TGI) in experiment [8] and in [7] was more than 100 µM throughout.

Turning to `O=C(c1ccc(Cl)cc1)c1ccc(OCCCOc2ccc(C(=O)c3ccc(Cl)cc3)cc2Cl)c(Cl)c1`, the TGI in experiment [1], in [2], in experiment [3], in experiment [5], in experiment [6] and in experiment [7] was more than 100 µM in each case.

As for `Cc1cccc(C)c1N1C(=O)C(=O)C(c2nc3ccccc3s2)/C(=N\N)C1=O` (stereo not drawn), the TGI in [1], in [2], in [3], in [4], in [5] and in [6] was more than 100 µM each time. For the same molecule, the TGI in [8] and in experiment [7] was more than 100 µM each time.

In the case of `COc1ccc([C@@]23Oc4cc(OC)cc(OC)c4[C@]2(O)[C@H](O)[C@H](C(N)=O)[C@H]3c2ccccc2)cc1`, the GI50 in [1] is less than 0.01 µM; in experiment [9], 0.0175 µM; in experiment [5], 0.0278 µM; in experiment [8], less than 0.013 µM; in [7], 0.0142 µM. For the same molecule, the total growth inhibition concentration (TGI) is 0.119 µM in experiment [1]; 0.0999 µM in experiment [2]; 0.126 µM and 0.0685 µM in [9]; 0.0765 µM and 0.0995 µM in experiment [4]; 0.101 µM and 0.0367 µM in experiment [5]; 0.0456 µM and < 0.01 µM in experiment [6]. In [8], this molecule yielded a TGI of less than 0.0215 µM.

As for `CN(/N=C/c1ccnc2ccccc12)c1c([N+](=O)[O-])cc([N+](=O)[O-])cc1[N+](=O)[O-]`, the TGI in experiment [1], in [2], in experiment [3], in [4], in experiment [5] and in experiment [6] was more than 100 µM in each case. The TGI in experiment [8] and in experiment [7] was more than 100 µM each time.

On to `N/N=C(/Cc1nc2ccc(C(=O)c3ccccc3)cc2[nH]c1=O)C(=O)Nc1ccc([N+](=O)[O-])cc1[N+](=O)[O-]`, for which the TGI in experiment [2], in [3], in [4], in experiment [5], in experiment [6] and in experiment [8] was more than 100 µM in each case. The total growth inhibition concentration (TGI) in experiment [7] was 71.5 µM. The GI50 in experiment [3], in [6] and in [8] was more than 100 µM throughout.

For `Cc1nc2c(o1)C(=Nc1ccccc1)c1nc(C)oc1C2=Nc1ccccc1`, the total growth inhibition concentration (TGI) in experiment [1] was 28.6 µM; in [2], 42.5 µM; in experiment [3], 54.1 µM; in experiment [4] it was 35.1 µM; in [5], more than 100 µM; in experiment [6], 46.7 µM. In experiment [8], the TGI was found to be 3.01 µM.

Turning to `COc1ccc(OC)c(/C=N/N=C(\N)NO)c1`, the TGI was more than 100 µM in experiment [1]; more than 100 µM in experiment [2]; more than 100 µM in experiment [3]; 60.3 µM in experiment [4]; 56 µM in experiment [5]; more than 100 µM in [6]. For the same molecule, the total growth inhibition concentration (TGI) in experiment [7] is more than 100 µM.

Regarding `O=C(/C=C/c1cccc([N+](=O)[O-])c1)c1ccc([N+](=O)[O-])cc1`, the TGI in experiment [1], in [2], in [3], in experiment [4], in [5] and in experiment [6] was more than 100 µM in each case. Besides, the TGI in experiment [8] and in experiment [7] was more than 100 µM in each case.

On to `Cc1cn(Cc2ccc(C34CC5CC(CC(C5)C3)C4)c(O)c2)c(=O)[nH]c1=O`, for which the GI50 is 11.2 µM in [1]; 13.9 µM in experiment [2]; 15.5 µM in [9]; 11.6 µM in experiment [4]; 14.7 µM in experiment [5]; 4.56 µM in experiment [6]. The GI50 was 4.33 µM in experiment [8] and 12.9 µM in [7]. For the same molecule, the total growth inhibition concentration (TGI) in experiment [1] is 29.6 µM; in [2] it was 31.1 µM; in experiment [9], 31 µM; in [4], 23.8 µM; in experiment [5], 32.2 µM; in experiment [6] it was 18.5 µM. For the same molecule, the values for the concentration for total growth inhibition (TGI) in experiment [8] and in experiment [7] were 17.8 µM and 32.1 µM, respectively.

Turning to `O=C(/C=C\c1cccc2ccccc12)c1ccc(Cl)cc1Cl`, the total growth inhibition concentration (TGI) in experiment [1] was more than 100 µM; in experiment [2] it was 72.9 µM; in [3], more than 100 µM; in [4], more than 100 µM; in experiment [5], more than 100 µM; in experiment [6] it was 49.9 µM. Besides, the TGI in experiment [8] and in [7] was more than 100 µM each time.

As to `O=C(Nc1ccc(Cl)c(Cl)c1)C(=O)C(C(=O)c1ccccc1-c1ccccc1)C1OC(=O)c2ccccc21` (stereo not drawn), the TGI in experiment [1] came to 41.3 µM; in [3] it was 63.2 µM; in [4], 33.6 µM; in experiment [5] it was 43.7 µM; in experiment [6] it was 73.6 µM; in [8], 65.5 µM.
